One may read the IC50 as the concentration that inhibits the measured activity by half. A low value points to greater potency in that assay.

Several values for one entry are separate records, joined by “and”; a condition that tells them apart may be missing. Identical values can stand only once.

In the experiment the target is Genome polyprotein (dengue virus type 2, UniProt P29990). The experiment is classed as functional, Thailand/16681/1984.
Genome polyprotein, sequence (P29990 1346-1475 limits assumed): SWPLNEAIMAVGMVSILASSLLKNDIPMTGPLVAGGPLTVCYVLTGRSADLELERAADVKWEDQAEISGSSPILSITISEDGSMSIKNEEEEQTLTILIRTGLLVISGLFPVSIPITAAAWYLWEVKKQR
Genome polyprotein, sequence (P29990 1476-2093 limits assumed): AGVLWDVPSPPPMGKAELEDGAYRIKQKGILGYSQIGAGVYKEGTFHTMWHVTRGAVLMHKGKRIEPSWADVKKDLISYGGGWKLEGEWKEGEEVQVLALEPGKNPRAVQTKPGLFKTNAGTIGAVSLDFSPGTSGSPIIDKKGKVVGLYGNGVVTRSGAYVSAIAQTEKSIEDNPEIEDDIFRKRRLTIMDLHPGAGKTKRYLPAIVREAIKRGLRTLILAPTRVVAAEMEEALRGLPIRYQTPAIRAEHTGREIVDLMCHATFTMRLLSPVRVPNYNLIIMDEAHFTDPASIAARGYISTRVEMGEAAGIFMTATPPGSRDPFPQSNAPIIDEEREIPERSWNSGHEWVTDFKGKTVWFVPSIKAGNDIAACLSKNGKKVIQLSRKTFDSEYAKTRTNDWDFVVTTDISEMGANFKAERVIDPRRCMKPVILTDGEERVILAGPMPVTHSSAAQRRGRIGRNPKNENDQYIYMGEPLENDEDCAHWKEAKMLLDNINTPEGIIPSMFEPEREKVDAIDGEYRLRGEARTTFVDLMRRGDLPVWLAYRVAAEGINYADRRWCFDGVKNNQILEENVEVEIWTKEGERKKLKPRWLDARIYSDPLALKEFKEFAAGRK
`c1ccc2c(CN3CCCc4cnccc4C3)n[nH]c2c1` had an IC50 greater than 99.5 µM. In turn, `NCc1cccc(NC(=O)[C@H](NS(=O)(=O)c2cccc(Cl)c2)c2ccc(OCc3ccccc3)cc2)c1` returned an IC50 greater than 99.5 µM. For `NCc1nccc(NC(=O)c2cc(Cl)cc(NC(=O)OCc3ccccc3)c2)n1` the value was greater than 99.5 µM; for `CCn1cc(C(=O)Nc2ccccc2)nc(N2CC[C@@H](CO)C2)c1=O`, greater than 99.5 µM; for `O=C(Nc1cc(Cl)cc(C(=O)Nc2cccc(C3CCNCC3)c2)c1)OCc1ccccc1`, 20.5 µM and 20.3 µM. The compound `NCc1cccc(NC(=O)[C@@H]2C[C@@H]3CC[C@H]2N3C(=O)OCc2ccccc2)c1` showed an IC50 greater than 99.5 µM. For `CCCNC(=O)Cn1ccnc(N2CC[C@H](CO)C2)c1=O` the value was greater than 99.5 µM; for `COc1cc(C(=O)O)c(S(=O)(=O)Nc2ccc(Oc3ccccc3Cl)cc2)cc1F`, 30.3 µM. The compound `NCc1ccc(CNC(=O)c2cc(Cl)cc(NC(=O)OCc3ccccc3)c2)cc1` registered an IC50 greater than 99.5 µM. With `COc1ccc(C)cc1S(=O)(=O)N[C@@H](C(=O)Nc1cccc(CN)c1)c1ccc(OCc2ccccc2)cc1`, inhibition was half-maximal at 96 µM (IC50).

Take `CN(C)Cc1cccc(-c2ccc(S(=O)(=O)Nc3ccc(Cl)cc3C(=O)O)cc2)c1`: the half-inhibitory concentration (IC50) was greater than 99.5 µM. For `NCc1cccc(NC(=O)[C@@H](NS(=O)(=O)CCc2ccccc2)c2ccc(OCc3ccccc3)cc2)c1` the value was 72.8 µM; for `NC1(c2cccc(NC(=O)c3cc(Cl)cc(NC(=O)OCc4ccccc4)c3)c2)CCC1`, greater than 99.5 µM. Next, `NCc1cccc(NC(=O)[C@@]23C[C@@H](NC(=O)OCc4ccccc4)C[C@@H]2C3)c1`: greater than 99.5 µM; `Cn1ccc(-c2n[nH]cc2CN2CCC(c3nc4ccccc4s3)CC2)n1`: greater than 99.5 µM. For `NCc1cccc(NC(=O)C[C@@H](NC(=O)OCc2ccccc2)c2ccc3c(c2)OCO3)c1` the value was greater than 99.5 µM; for `O=C(O)c1cc(Cl)cc(Cl)c1S(=O)(=O)Nc1ccc(Oc2ccccc2Cl)cc1`, greater than 99.5 µM.

Regarding `O=C(O)c1cc(Cl)ccc1S(=O)(=O)N[C@H]1CCn2c(nnc2C(F)(F)F)C1`, the IC50 is greater than 99.5 µM. For `CCNC(=O)c1cn(CC)c(=O)c(N2CC[C@@H](CO)C2)n1` the value was greater than 99.5 µM; for `C[C@H]1CN(C(=O)c2cccc3c(CN)cccc23)CCC12CCNCC2`, greater than 99.5 µM. In turn, `CCn1nccc1S(=O)(=O)N[C@@H](C(=O)Nc1cccc(CN)c1)c1ccc(OCc2ccccc2)cc1` had an IC50 greater than 99.5 µM. As to `CCn1ccnc(N2CCC[C@H]2C(=O)O)c1=O`, the IC50 was greater than 99.5 µM. For `O=C(O)c1cc(Cl)ccc1S(=O)(=O)N[C@H]1CC[C@@H](Oc2cnccn2)CC1` the value was greater than 99.5 µM; for `NCC1CCN(C(=O)c2cc(Cl)cc(NC(=O)OCc3ccccc3)c2)CC1`, greater than 99.5 µM; for `O=C(O)c1cc(Cl)ccc1S(=O)(=O)NC1CCN(c2ncnc3c2CCC3)CC1`, greater than 99.5 µM. `Cn1ccc(CS(=O)(=O)N[C@@H](C(=O)Nc2cccc(CN)c2)c2ccc(OCc3ccccc3)cc2)n1` registered an IC50 greater than 99.5 µM. `O=C(O)c1cc(Cl)ccc1S(=O)(=O)NC1CCN(S(=O)(=O)Cc2ccccc2)CC1` displayed an IC50 greater than 99.5 µM. For `O=C(O)c1cc(Cl)ccc1S(=O)(=O)Nc1ccc(C(=O)N2CCCCC2)cc1` the value was greater than 99.5 µM; for `O=C(O)c1cc(Cl)ccc1NS(=O)(=O)c1ccc(-c2ccncc2)cc1`, greater than 99.5 µM; for `CN(C)[C@@H]1C[C@H](C(=O)Nc2cccc(CN)c2)CN(C(=O)OCc2ccccc2)C1`, greater than 99.5 µM.

The compound `c1cncc(CC2CN(Cc3n[nH]c4ccccc34)C2)c1` came in with an IC50 greater than 99.5 µM. Next, `O=C(O)c1cc(Cl)ccc1NS(=O)(=O)c1ccc(-c2cncs2)cc1`: 75.3 µM. For `O=C(Nc1cc(Cl)cc(C(=O)Nc2cccc(CC3CCNCC3)c2)c1)OCc1ccccc1` the value was greater than 99.5 µM; for `NCc1cccc(NC(=O)C[C@@H](NC(=O)OCc2ccccc2)C2CCCCC2)c1`, 45.2 µM and 44.4 µM; for `NCc1cccc(NC(=O)C[C@@H]2[C@H]3CC[C@H](C3)N2C(=O)OCc2ccccc2)c1`, greater than 99.5 µM.

`NCc1cccc(NC(=O)[C@H](NC(=O)COc2ccccc2)c2ccc(OCc3ccccc3)cc2)c1` yielded an IC50 of 55.2 µM. `NCCc1ccc(NC(=O)c2cc(Cl)cc(NC(=O)OCc3ccccc3)c2)cc1` yielded an IC50 of 30.9 µM. Against the preceding compound, the IC50 is about 1.8-fold lower. As for `Cn1cc(CCOc2ccc([C@@H](NC(=O)OCc3ccccc3)C(=O)Nc3cccc(CN)c3)cc2)nn1`, the IC50 was greater than 99.5 µM. For the compound `Cc1cc(NS(=O)(=O)c2ccc(Cl)cc2C(=O)O)nn1Cc1ccccc1`, the IC50 is greater than 99.5 µM. Take `NCCc1cccc(NC(=O)c2cc(Cl)cc(NC(=O)OCc3ccccc3)c2)c1`: the IC50 is 49.7 µM and 44 µM. As for `Fc1cccc(F)c1-c1n[nH]cc1CN1CCC(c2nc3ccccc3s2)CC1`, the IC50 is greater than 99.5 µM.

For the compound `COC(=O)Cc1ccccc1-c1ccc(S(=O)(=O)Nc2ccc(Cl)cc2C(=O)O)cc1`, the IC50 was 35.5 µM. This lies in the double-digit micromolar range. In the case of `N#Cc1ccc(S(=O)(=O)Nc2ccc(Oc3ccccc3Cl)cc2)c(C(=O)O)c1`, the IC50 is 55.7 µM. `O=C(O)c1cc(Cl)ccc1S(=O)(=O)Nc1ccc(-c2n[nH]c3c2CCCC3)cc1` showed an IC50 of 73.2 µM. For `Cc1cc(C)cc(C(=O)N2CCC(NS(=O)(=O)c3ccc(Cl)cc3C(=O)O)CC2)c1` the value was greater than 99.5 µM; for `O=C(O)c1cc(Cl)ccc1S(=O)(=O)Nc1ccc(S(=O)(=O)N2CCCCC2)cc1`, greater than 99.5 µM. `COc1ccc([C@@H](CC(=O)Nc2cccc(CN)c2)NC(=O)OCc2ccccc2)cc1Br`: the IC50 was found to be 50.1 µM. That is a double-digit micromolar value. `COC(=O)c1n[nH]cc1CN1CCC(c2nc3ccccc3s2)CC1` came in with a 50% inhibitory concentration (IC50) greater than 99.5 µM.

In turn, `CCC1([C@H](NC(=O)OCc2ccccc2)C(=O)Nc2cccc(CN)c2)CCCCC1` yielded an IC50 greater than 99.5 µM. `CCOC1CC(S(=O)(=O)N[C@H](C(=O)Nc2cccc(CN)c2)c2ccc(OCc3ccccc3)cc2)C1` (some centres not stated): the IC50 was greater than 99.5 µM. Next, `NCc1cccc(NC(=O)[C@H]2[C@@H]3CC[C@@H](C3)[C@H]2NC(=O)OCc2ccccc2)c1`: greater than 99.5 µM. `O=C(O)c1cc(Cl)ccc1S(=O)(=O)Nc1ccc(CN2CCCCC2)cc1`: the IC50 is greater than 99.5 µM. Regarding `COc1ncc(C(=O)Nc2cccc(CN)c2)cc1NC(=O)OCc1ccccc1`, the IC50 was greater than 99.5 µM. For `NCc1cccc(NC(=O)[C@@H](NS(=O)(=O)c2ccccn2)c2ccc(OCc3ccccc3)cc2)c1` the value was greater than 99.5 µM; for `C[C@@H]1C[C@H](NS(=O)(=O)c2ccc(Cl)cc2C(=O)O)C[C@H](C)N1Cc1ccccc1`, greater than 99.5 µM; for `CSc1ccc([C@H](CC(=O)Nc2cccc(CN)c2)NC(=O)OCc2ccccc2)cc1`, 44.2 µM. Regarding `O=C(O)c1cc(Cl)ccc1S(=O)(=O)NC1CCN(S(=O)(=O)c2cccs2)CC1`, the IC50 is greater than 99.5 µM. On to `NCCNC(=O)c1cc(Cl)cc(NC(=O)OCc2ccccc2)c1`, for which the IC50 is greater than 99.5 µM.

As for `NC1CCN(C(=O)c2cc(Cl)cc(NC(=O)OCc3ccccc3)c2)CC1`, the IC50 was greater than 99.5 µM.

Compound `c1ccc(-c2ncc(CN3CCC(c4nc5ccccc5s4)CC3)[nH]2)cc1` returned an IC50 greater than 99.5 µM. For `Cc1cccc(N2CCC(NS(=O)(=O)c3ccc(Cl)cc3C(=O)O)CC2)n1` the value was greater than 99.5 µM. As to `c1ccc2sc(C3CCN([C@H]4Cc5[nH]c6ccccc6c5C4)CC3)nc2c1`, the IC50 is greater than 99.5 µM.

Turning to `CCn1cc(C(=O)NCc2ccccc2)nc(N2CC[C@@H](CO)C2)c1=O`, the IC50 was greater than 99.5 µM.

On to `C[C@@H](N)c1ccc(NC(=O)c2cc(Cl)cc(NC(=O)OCc3ccccc3)c2)cc1`, for which half-maximal inhibition (IC50) required 48.2 µM. For `CCn1cc(C(=O)N2CCN(C)CC2)nc(N2CC[C@@H](CO)C2)c1=O` the value was greater than 99.5 µM; for `O=C(O)c1cc(Cl)ccc1S(=O)(=O)Nc1ccc(S(=O)(=O)Nc2ccccc2)cc1`, greater than 99.5 µM. For `NCc1cccc(NC(=O)[C@@H](NS(=O)(=O)C[C@H]2CCCCO2)c2ccc(OCc3ccccc3)cc2)c1` the value was greater than 99.5 µM; for `CCc1ncc(CN2CCC(c3nc4ccccc4s3)CC2)[nH]1`, greater than 99.5 µM.

`c1ccc2sc(C3CCN(Cc4n[nH]c5c4CCCC5)CC3)nc2c1`: the IC50 is greater than 99.5 µM.

As to `COc1ccc(-c2cc(NS(=O)(=O)c3ccc(Cl)cc3C(=O)O)ccc2OC)cc1`, the IC50 was determined as 48.8 µM. This counts as double-digit micromolar. Next, `COc1n[nH]cc1CN1CCC(c2nc3ccccc3s2)CC1`: greater than 99.5 µM; `O=C(O)c1cc(Cl)ccc1NS(=O)(=O)c1ccc(-c2ccc(F)cc2)cc1`: 12.5 µM. For `CC1(N2CCC(NS(=O)(=O)c3ccc(Cl)cc3C(=O)O)CC2)CCCCC1`, the IC50 was greater than 99.5 µM.

As for `CCCOc1ccc([C@@H](CC(=O)Nc2cccc(CN)c2)NC(=O)OCc2ccccc2)cc1`, the IC50 was 24.7 µM and 59.4 µM. Compound `CN(C)c1cc(-c2ccc(S(=O)(=O)Nc3ccc(Cl)cc3C(=O)O)cc2)ccn1` had an IC50 of 87.6 µM. This counts as double-digit micromolar. In turn, `NCc1cccc(NC(=O)[C@@H](NS(=O)(=O)c2ccccc2F)c2ccc(OCc3ccccc3)cc2)c1` showed a concentration for half-maximal inhibition (IC50) greater than 99.5 µM. Compound `c1ccc2c(CN[C@H]3CCc4c([nH]c5ccccc45)C3)n[nH]c2c1` returned an IC50 greater than 99.5 µM.

`CN1CC=C(c2ccc(S(=O)(=O)Nc3ccc(Cl)cc3C(=O)O)cc2)CC1` yielded an IC50 greater than 99.5 µM. As to `CN(C(=O)c1cc(Cl)cc(NC(=O)OCc2ccccc2)c1)c1ccc(CN)cc1`, the IC50 is greater than 99.5 µM. For `CC(=O)N1CCC[C@H]1C(=O)N[C@@H](C(=O)Nc1cccc(CN)c1)c1ccc(OCc2ccccc2)cc1`, the IC50 is greater than 99.5 µM. Compound `c1cncc(C2CC(NCc3n[nH]c4ccccc34)C2)c1` (configuration not stated) came in with an IC50 greater than 99.5 µM. With `COc1ccc(NS(=O)(=O)c2ccc(Cl)cc2C(=O)O)cc1S(=O)(=O)N1CCCC1`, the IC50 was greater than 99.5 µM. The compound `N#Cc1ccccc1O[C@H]1CC[C@H](NS(=O)(=O)c2ccc(Cl)cc2C(=O)O)CC1` registered a 50% inhibitory concentration (IC50) greater than 99.5 µM. Compound `O=C(O)c1cc(Cl)ccc1S(=O)(=O)Nc1ccc(F)c(NC(=O)C2CC2)c1` registered an IC50 greater than 99.5 µM. Compound `O=C(O)c1cc(Cl)ccc1S(=O)(=O)NC1CCN(c2nc(C3CC3)cc(C(F)(F)F)n2)CC1` gave an IC50 of 15.5 µM. In other words, the double-digit micromolar range. For the compound `CCc1ccc(S(=O)(=O)N[C@@H](C(=O)Nc2cccc(CN)c2)c2ccc(OCc3ccccc3)cc2)cc1`, the IC50 worked out at 92 µM.

In turn, `CCn1cc(S(=O)(=O)N[C@@H](C(=O)Nc2cccc(CN)c2)c2ccc(OCc3ccccc3)cc2)cn1` showed an IC50 greater than 99.5 µM.

The record behind these values is ChEMBL document CHEMBL5604063, “ASAP - DENV-2 NS2B-NS3 protease fluorescence dose response” (2024).
